How the values were obtained:
[1] = Noncompartmental PK of rutin after intravenous administration of pure rutin or P. peruviana extract; assay type: in vivo, New Zealand White rabbits
Procedure: (§1) Twenty male New Zealand White rabbits were obtained from Sentagro E.A.T (Cachipay, Cundinamarca, Colombia), who certificated their origin and traceability. The animals were between 9 and 10 weeks old, weighing between 1.8 and 2.2 kg. They were allowed to acclimate for at least 5 days under constant temperature conditions (22 ± 1 °C), with light/dark cycles of 12 h, at the animal facility of the Department of Pharmacy of the Universidad Nacional de Colombia (UNAL), where the experiments were conducted. They were provided with water and food ad libitum until 12 h prior to the experiment, when they were fasted. The study protocol was approved by the ethics committee of the science faculty of the UNAL (Act 06, 2015, project 40831, 22 June 2015).
(§2) Rabbits were divided into four groups to receive either pure rutin or P. peruviana extract intravenously (i.v.) or orally (p.o.). The dose of rutin i.v. was set at 0.37 mg/kg, based on the highest quantity of the compound able to dissolve in 1 mL of the diluent used. The dose of extract i.v. was 100 mg/kg, a reference dose for animal experimentation in our group, which also allowed the solubilization of rutin in the extract within the administration volume. Oral rutin was administrated at a dose of 100 mg/kg, and oral extract was administrated at a dose of 500 mg/kg, which is an active dose from prior experiments. Based on the rutin content in the extract, the doses of extract used were equivalent to 1.48 mg/kg and 7.4 mg/kg of rutin for the i.v. and p.o. experiments, respectively.
(§3) For intravenous administration, solutions of rutin in sodium chloride solution (0.9% NaCl) were prepared at a concentration of 0.74 mg/mL, using DMSO (<0.1% of the final volume) to dissolve the compound. Meanwhile, the extract was directly dissolved in 0.9% NaCl at a concentration of 200 mg/mL. For oral administration, pure rutin and the extract were suspended in water near the time of the experiment to achieve concentrations in suspension of 200 and 1000 mg/mL, respectively. Vortexing and sonication were applied 3–4 times for 15 min each to all preparations. Each animal received 0.5 mL/kg of the treatment via the marginal ear vein (i.v.) or by oral gavage (p.o.).
(§4) Samples of blood (approximately 250 µL) were withdrawn from the marginal ear vein and collected in heparinized tubes at various time points. For experiments with i.v. administration, sampling was conducted at times 0, 0.083, 0.166, 0.333, 0.5, 0.75, 1, 1.5, 2, 3, 4, 6, 8, 12, and 24 h. For experiments with p.o. administration, sampling was performed at times 0, 0.083, 0.25, […], 0.75, 1, 2, 3, 4, 6, 8, 12, 24, and 48 h (Figure 1). The blood samples were then centrifuged at 3200× g and at 4 °C for 15 min to separate plasma, which was transferred to a new tube. The plasma was promptly acidified to pH 4 using 0.5 µL of 42.5% formic acid and then frozen at −80 °C until further analysis.
(§5) The quantification of analytes was carried out using a validated UHPLC-UV method on a Chromaster RS chromatograph (Hitachi, Tokyo, Japan). Briefly, plasma samples (100 µL) were supplemented with the internal standard, chrysin (1000 ng/mL), and divided into two tubes. One tube was immediately extracted and injected into the chromatographic system to quantify rutin. The plasma in the other tube first underwent a deconjugation reaction with 120 Fishman units of a mixture of the enzymes β-glucuronidase/arylsulfatase at pH 5.5 and 37 °C for 30 min. The product of the reaction, Quer, was also quantified, representing rutin metabolites Q3OG and Q3OS. The analytes in the plasma samples, rutin and Quer, were extracted using the protein precipitation method with twice the volume of methanol; proteins were then separated by centrifugation at 1200× g and 4 °C for 15 min, and the supernatant was used for instrumental analysis.
(§6) Concentrations–time data were tabulated and processed using MonolixSuite™ 2024R1 (Lixoft®, Paris, France). […]

[2] = parameters: method as in PMID 32162346; details: low solubility and low permeability; cited from earlier work
[3] = parameters: method as in PMID 33921404; details: rutin; popPK, Wistar rats; cited from earlier work
[4] = Noncompartmental PK of rutin after oral administration of pure rutin or P. peruviana extract; assay type: in vivo, New Zealand White rabbits
Procedure: as §1, §2, §3, §4, §5, §6

[5] = Population PK model of rutin after i.v. administration (two-compartment, first-order elimination); assay type: in vivo, New Zealand White rabbits
Procedure: PopPK analysis was performed using the Monolix® module of the MonolixSuite™. Two models were established, one for rutin after i.v. administration of the treatments, and one for Quer, produced by deconjugation of Q3OG and Q3OS, after p.o. administration of the treatments. Structural models with one or two compartments and first-order elimination were assessed, incorporating a double first-order absorption for p.o. experiments. An analysis of covariate was conducted, using the source of rutin as categorical covariate (pure compound or extract), which was incorporated into the model if statistically significant (p < 0.05 for Pearson’s and Wald tests with stochastic approximation). Correlations between random effects of the parameters were also examined and included in the model when significant (p < 0.05 for t-test). The final model, along with the residual error model, was chosen based on criteria including individual fit plots, Akaike’s information criteria (AIC) values, observation-versus-prediction plot analysis, precision of estimated parameters, and evaluation of residual distribution. The variability on fixed-effect model parameters was described by Equation (4):(4) Pi=Ppop+β+η(i,p), where Pi is the value of the individual PK parameter, Ppop is the value of the population PK parameter, β represents the variability due to the covariate extract if significant, and η is the individual deviation with respect to the population. Models were parametrized in micro-constants, i.e., elimination rate constant (k), distribution rate constant from compartment 1 to compartment 2 (k12), and distribution rate constant from compartment 2 to compartment 1 (k21). When necessary, Cl was calculated as follows: (5) Cl=k×V, where V is the volume of distribution of first compartment. The model was internally validated through the visual predictive check (VPC) with 1000 simulated data points. Validation of structural, variability, and covariate models was considered achieved if the observed percentiles remained within the corresponding prediction intervals estimated across all simulated data and computed with a level of 90%. In addition, the parameter uncertainty was assayed by bootstrap analysis using 1000 runs. The model was considered stable, robust, and accurate if the mean parameters of the model were close to those estimated via bootstrap and fell within the 95% confidence interval (CI 95%).

[6] = Simple allometry prediction of human V and Cl of rutin; parameters: species or system humans
Source text: Individual pharmacokinetics parameters estimated by PopPK analysis in this study, along with those from a previous study conducted by the group in Wistar rats, were used to extrapolate V and Cl to humans using the simple allometry Equation (6):(6) Y=a×W^b, where Y is the PK parameter in humans, W is the human weight, typically set at 70 kg, and a and b are the coefficient and the exponent of scaling, respectively. These last two values are obtained from the relationship between the PK parameter and body weight across different species. Theoretically, b is fixed to 0.75 for Cl and 1.0 for Vd, although it can vary depending on the drug and population under study.

[7] = male, New Zealand White, rabbit, plasma, iv, rutin, pure rutin 0.37 mg/kg, extract equivalent to 1.48 mg/kg of rutin, NCA, mean ± SD, n = 5
[8] = rutin, i.v., pure rutin 0.37 mg/kg, extract equivalent to 1.48 mg/kg of rutin, NCA, mean ± SD, n = 5
[9] = male, New Zealand White, rabbit, plasma, po, rutin, pure rutin 100 mg/kg, extract equivalent to 7.4 mg/kg of rutin, NCA, mean ± SD, n = 5
[10] = male, New Zealand White, rabbit, po, rutin in plasma, pure rutin 100 mg/kg, extract equivalent to 7.4 mg/kg of rutin, NCA, mean ± SD, n = 5
[11] = rutin, p.o., pure rutin 100 mg/kg, extract equivalent to 7.4 mg/kg of rutin, NCA, mean ± SD, n = 5

C[C@@H]1O[C@@H](OC[C@H]2O[C@@H](Oc3c(-c4ccc(O)c(O)c4)oc4cc(O)cc(O)c4c3=O)[C@H](O)[C@@H](O)[C@@H]2O)[C@H](O)[C@H](O)[C@H]1O [Pure Rutin, quercetin-3-O-rutinoside]
time post-dosage up to which rutin was quantified ([1]; i.v.): up to 6 h | rutin plasma level, upper end of quantified range ([1]; i.v., mean ± SEM): 4960 ± 340 ng/mL | AUC(0-inf) ([1]; male, New Zealand White, rabbit, iv, rutin in plasma, pure rutin 0.37 mg/kg, extract equivalent to 1.48 mg/kg of rutin, NCA, mean ± SD, n = 5): 4740 ± 814 ng·h/mL | Vd ([1]; male, New Zealand White, rabbit, plasma, iv, 0.37 mg/kg, rutin, i.v., pure rutin 0.37 mg/kg, extract equivalent to 1.48 mg/kg of rutin, NCA, mean ± SD, n = 5, read-out: Vss): 0.29 ± 0.053 L/kg | Vd ([1]; male, New Zealand White, rabbit, plasma, iv, 0.37 mg/kg, rutin, i.v., pure rutin 0.37 mg/kg, extract equivalent to 1.48 mg/kg of rutin, NCA, mean ± SD, n = 5, read-out: Vz): 0.084 ± 0.028 L/kg | concentration at 6 h ([1]; male, New Zealand White, rabbit, plasma, iv, 0.37 mg/kg, i.v., mean ± SEM, at last quantified time, read-out: rutin plasma level, lower end of quantified range): 105 ± 24 ng/mL | half-life ([1]; male, New Zealand White, rabbit, plasma, iv, rutin, i.v., pure rutin 0.37 mg/kg, extract equivalent to 1.48 mg/kg of rutin, NCA, mean ± SD, n = 5, read-out: t1/2 (terminal half-life) (converted)): 0.79 ± 0.381 h | k el ([1]; male, New Zealand White, rabbit, plasma, iv, rutin, i.v., pure rutin 0.37 mg/kg, extract equivalent to 1.48 mg/kg of rutin, NCA, mean ± SD, n = 5, read-out: λz (converted)): 0.000294 s⁻¹ | MRT [1, 7]: 3.63 ± 0.163 h | clearance [1, 7]: 1.32 mL/min/kg | Cp^0 (plasma concentration at zero time) ([1]; rutin in plasma, i.v., pure rutin 0.37 mg/kg, extract equivalent to 1.48 mg/kg of rutin, NCA, mean ± SD, n = 5): 4960.02 ± 760.234 ng/mL | AUC0–∞/dose [1, 8]: 12.90 ± 2.214 h/L/kg | Cp^0/dose [1, 8]: 13.49 ± 2.068 L⁻¹ kg⁻¹ | Biopharmaceutical Classification System class [2]: Class IV | Cl, rat parameter [3]: 0.031 L/h | V, rat parameter [3]: 0.024 L | bioavailability ([4]; male, New Zealand White, rabbit, plasma, po, p.o. vs i.v., pure rutin 100 mg/kg, extract equivalent to 7.4 mg/kg of rutin, read-out: F (absolute bioavailability of rutin)): 0.6% | Vd/F ([4]; male, New Zealand White, rabbit, plasma, po, rutin, p.o., pure rutin 100 mg/kg, extract equivalent to 7.4 mg/kg of rutin, NCA, mean ± SD, n = 5, read-out: Vz/F): 59.1 ± 11.4 L/kg | k el ([4]; male, New Zealand White, rabbit, plasma, po, rutin, p.o., pure rutin 100 mg/kg, extract equivalent to 7.4 mg/kg of rutin, NCA, mean ± SD, n = 5, read-out: λz (converted)): 6.5e-05 s⁻¹ | CL/F [4, 9]: 226 mL/min/kg | MRT [4, 9]: 11.8 ± 0.916 h | AUC(0-inf) [4, 10]: 7790 ± 2110 ng·h/mL | Cmax [4, 10]: 1170 ± 371 ng/mL | Tmax [4, 10]: 0.75 h | time of second peak of rutin plasma concentration (double peaks) ([4]; p.o., Cmax here for the extract): 4.0 h | time of first peak of rutin plasma concentration (double peaks) ([4]; p.o., Cmax here for the pure compound): 0.75 h | AUC0–∞/dose [4, 11]: 0.078 ± 0.021 h/L/kg | Cmax/dose [4, 11]: 0.012 ± 0.004 L⁻¹ kg⁻¹ | clearance ([5]; New Zealand White, rabbit, plasma, intravenous, 0.37 mg/kg, popPK individual parameters, Cl = k × V, per animal, read-out: Cl, rabbit parameter (converted)): 3.13 mL/min | k12 (distribution rate constant compartment 1 to 2), population value ([5]; i.v., popPK): 3.666 h⁻¹ | k21 (distribution rate constant compartment 2 to 1), population value ([5]; i.v., popPK, no extract covariate): 3.777 h⁻¹ | Vd ([5]; male, New Zealand White, rabbit, plasma, iv, popPK, read-out: V (volume of distribution of first compartment), population value): 0.048 L/kg | k el ([5]; male, New Zealand White, rabbit, plasma, iv, popPK, read-out: k (first-order elimination rate constant), population value (converted)): 0.000534 s⁻¹ | V, rabbit parameter ([5]; popPK individual parameters, per animal): 0.096 L | V, human parameter (experimental b) ([6]; 70 kg, b exponent from the data): 1.410 L | Cl, human parameter (theoretical b) ([6]; 70 kg, theoretical b 0.75): 2.323 L/h | V, human parameter (theoretical b) ([6]; 70 kg, theoretical b 1.0): 3.988 L | Cl, a coefficient of allometric scaling ([6]; Y = a × W^b, rats and rabbits): 0.096 | Cl, b exponent of allometric scaling ([6]; Y = a × W^b, rats and rabbits): 0.9 | V, a coefficient of allometric scaling ([6]; Y = a × W^b, rats and rabbits): 0.057 | V, b exponent of allometric scaling ([6]; Y = a × W^b, rats and rabbits): 0.8 | clearance ([6]; human, 70 kg, b exponent from the data, read-out: Cl, human parameter (experimental b) (converted)): 89.8 mL/min

Source: article PMC11510156, “Rutin and Physalis peruviana Extract: Population Pharmacokinetics in New Zealand Rabbits” (Pharmaceutics, 2024)
